According to PubChem BioAssay AID2060486 (Molecular Pharmacology Branch, DTP, NCI, 2025):

System: IGROV1 complex spheroids (HUVEC, MSC), viability % test/control
Assay: Anticancer human tumor IGROV1 cell line growth inhibition [GQUAD];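 note: spheroids exposed to compounds for 7 days before readout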;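 for viability, T/C: 100% = DMSO vehicle control viability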
Settings: for IC50: curve of first compound; for viability, T/C: stronger effect = lower value
Method in brief: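 Viability of tumor cells grown as complex spheroids with endothelial and stromal cells, exposed to drug combinations. Top concentration at or near clinical Cmax (else 10 microM), diluted in half-log increments.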

[1] = second compound 0.0316 µM, first compound 0.0316 µM
[2] = second compound 0.0316 µM, first compound 0.1 µM
[3] = second compound 0.0316 µM, first compound 0.316 µM
[4] = second compound 0.0316 µM, first compound 1 µM
[5] = second compound 0.0316 µM, first compound 3.16 µM
[6] = second compound 0.0316 µM, first compound 10 µM
[7] = second compound 0.1 µM, first compound 0.0316 µM
[8] = second compound 0.1 µM, first compound 0.1 µM
[9] = second compound 0.1 µM, first compound 0.316 µM
[10] = second compound 0.1 µM, first compound 1 µM
[11] = second compound 0.1 µM, first compound 3.16 µM
[12] = second compound 0.1 µM, first compound 10 µM
[13] = second compound 0.316 µM, first compound 0.0316 µM
[14] = second compound 0.316 µM, first compound 0.1 µM
[15] = second compound 0.316 µM, first compound 0.316 µM
[16] = second compound 0.316 µM, first compound 1 µM
[17] = second compound 0.316 µM, first compound 3.16 µM
[18] = second compound 0.316 µM, first compound 10 µM
[19] = second compound 1 µM, first compound 0.0316 µM
[20] = second compound 1 µM, first compound 0.1 µM
[21] = second compound 1 µM, first compound 0.316 µM
[22] = second compound 1 µM, first compound 1 µM
[23] = second compound 1 µM, first compound 3.16 µM
[24] = second compound 1 µM, first compound 10 µM
[25] = second compound 3.16 µM, first compound 0.0316 µM
[26] = second compound 3.16 µM, first compound 0.1 µM
[27] = second compound 3.16 µM, first compound 0.316 µM
[28] = second compound 3.16 µM, first compound 1 µM
[29] = second compound 3.16 µM, first compound 3.16 µM
[30] = second compound 3.16 µM, first compound 10 µM
[31] = second compound 10 µM, first compound 0.0316 µM
[32] = second compound 10 µM, first compound 0.1 µM
[33] = second compound 10 µM, first compound 0.316 µM
[34] = second compound 10 µM, first compound 1 µM
[35] = second compound 10 µM, first compound 3.16 µM
[36] = second compound 10 µM, first compound 10 µM

C=CC(=O)N1CCN(c2nc(=O)n(-c3c(C)ccnc3C(C)C)c3nc(-c4c(O)cccc4F)c(F)cc23)C(C)C1 (stereo not drawn) + CN(C)c1ccc(Nc2c3ccc(NC(=O)CCN4CCCC4)cc3nc3cc(NC(=O)CCN4CCCC4)ccc23)cc1
IC50 (second compound 0.0316 µM): > 10000 nM | IC50 (second compound 0.1 µM): > 10000 nM | IC50 (second compound 0.316 µM): > 10000 nM | IC50 (second compound 1 µM): > 10000 nM | IC50 (second compound 3.16 µM): > 10000 nM | IC50 (second compound 10 µM): 4880 nM | viability, T/C [1]: 99.1% | viability, T/C [2]: 100% | viability, T/C [3]: 106% | viability, T/C [4]: 90.7% | viability, T/C [5]: 104% | viability, T/C [6]: 90.5% | viability, T/C [7]: 99.7% | viability, T/C [8]: 90.3% | viability, T/C [9]: 96.3% | viability, T/C [10]: 88.5% | viability, T/C [11]: 111% | viability, T/C [12]: 104% | viability, T/C [13]: 91.5% | viability, T/C [14]: 75.2% | viability, T/C [15]: 88.4% | viability, T/C [16]: 83.3% | viability, T/C [17]: 111% | viability, T/C [18]: 83.3% | viability, T/C [19]: 90.1% | viability, T/C [20]: 70.3% | viability, T/C [21]: 93.7% | viability, T/C [22]: 108% | viability, T/C [23]: 106% | viability, T/C [24]: 95.1% | viability, T/C [25]: 86% | viability, T/C [26]: 86.4% | viability, T/C [27]: 101% | viability, T/C [28]: 99.5% | viability, T/C [29]: 99.5% | viability, T/C [30]: 77.8% | viability, T/C [31]: 62.6% | viability, T/C [32]: 58.7% | viability, T/C [33]: 67.2% | viability, T/C [34]: 71.8% | viability, T/C [35]: 64.1% | viability, T/C [36]: 26.3%

COc1cc(C2c3cc4c(cc3C(OC3OC5COC(C)OC5C(O)C3O)C3COC(=O)C23)OCO4)cc(OC)c1O (stereo not drawn) + CN(C)c1ccc(Nc2c3ccc(NC(=O)CCN4CCCC4)cc3nc3cc(NC(=O)CCN4CCCC4)ccc23)cc1
IC50 (second compound 0.0316 µM): 138 nM | IC50 (second compound 0.1 µM): 109 nM | IC50 (second compound 0.316 µM): 93.5 nM | IC50 (second compound 1 µM): 84.1 nM | IC50 (second compound 3.16 µM): 98.5 nM | IC50 (second compound 10 µM): < 31.6 nM | viability, T/C [1]: 88.3% | viability, T/C [2]: 59.8% | viability, T/C [3]: 25.1% | viability, T/C [4]: 13.8% | viability, T/C [5]: 9.71% | viability, T/C [6]: 6.8% | viability, T/C [7]: 90.7% | viability, T/C [8]: 51.9% | viability, T/C [9]: 24.9% | viability, T/C [10]: 11.9% | viability, T/C [11]: 9.44% | viability, T/C [12]: 6.65% | viability, T/C [13]: 88% | viability, T/C [14]: 47.6% | viability, T/C [15]: 23.2% | viability, T/C [16]: 11.3% | viability, T/C [17]: 9.49% | viability, T/C [18]: 5.93% | viability, T/C [19]: 83.4% | viability, T/C [20]: 44.5% | viability, T/C [21]: 18.1% | viability, T/C [22]: 12.9% | viability, T/C [23]: 9.59% | viability, T/C [24]: 5.75% | viability, T/C [25]: 85.2% | viability, T/C [26]: 49.4% | viability, T/C [27]: 24.6% | viability, T/C [28]: 11% | viability, T/C [29]: 9.22% | viability, T/C [30]: 5.74% | viability, T/C [31]: 50.3% | viability, T/C [32]: 22.1% | viability, T/C [33]: 13.1% | viability, T/C [34]: 7.21% | viability, T/C [35]: 6.58% | viability, T/C [36]: 4.87%

Cc1cccc(N(C)C(=O)C2C(O)CCN2c2nc(C)cc(C(F)(F)F)c2C#N)c1 (stereo not drawn) + CN(C)c1ccc(Nc2c3ccc(NC(=O)CCN4CCCC4)cc3nc3cc(NC(=O)CCN4CCCC4)ccc23)cc1
IC50 (second compound 0.0316 µM): > 10000 nM | IC50 (second compound 0.1 µM): > 10000 nM | IC50 (second compound 0.316 µM): > 10000 nM | IC50 (second compound 1 µM): > 10000 nM | IC50 (second compound 3.16 µM): 5480 nM | IC50 (second compound 10 µM): < 31.6 nM | viability, T/C [1]: 101% | viability, T/C [2]: 75.8% | viability, T/C [3]: 85.2% | viability, T/C [4]: 77.5% | viability, T/C [5]: 92.5% | viability, T/C [6]: 97.1% | viability, T/C [7]: 93.9% | viability, T/C [8]: 83.2% | viability, T/C [9]: 86.9% | viability, T/C [10]: 79.9% | viability, T/C [11]: 95.5% | viability, T/C [12]: 93.1% | viability, T/C [13]: 99.1% | viability, T/C [14]: 79.5% | viability, T/C [15]: 88.5% | viability, T/C [16]: 70.6% | viability, T/C [17]: 88.9% | viability, T/C [18]: 96.2% | viability, T/C [19]: 86.2% | viability, T/C [20]: 90.6% | viability, T/C [21]: 71% | viability, T/C [22]: 84.5% | viability, T/C [23]: 89.3% | viability, T/C [24]: 84.7% | viability, T/C [25]: 83.1% | viability, T/C [26]: 85.2% | viability, T/C [27]: 82.2% | viability, T/C [28]: 64% | viability, T/C [29]: 71% | viability, T/C [30]: 33.9% | viability, T/C [31]: 43.5% | viability, T/C [32]: 50.3% | viability, T/C [33]: 34.3% | viability, T/C [34]: 35% | viability, T/C [35]: 25.7% | viability, T/C [36]: 11.7%

Cn1ncnc1[C@H]1c2n[nH]c(=O)c3cc(F)cc(c23)N[C@@H]1c1ccc(F)cc1 + CN(C)c1ccc(Nc2c3ccc(NC(=O)CCN4CCCC4)cc3nc3cc(NC(=O)CCN4CCCC4)ccc23)cc1
IC50 (second compound 0.0316 µM): 89.6 nM | IC50 (second compound 0.1 µM): 42.8 nM | IC50 (second compound 0.316 µM): 127 nM | IC50 (second compound 1 µM): 93.4 nM | IC50 (second compound 3.16 µM): 56.5 nM | IC50 (second compound 10 µM): < 0.999 nM | viability, T/C (second compound 0.0316 µM, first compound 0.000999 µM): 99.9% | viability, T/C (second compound 0.0316 µM, first compound 0.00316 µM): 88.4% | viability, T/C (second compound 0.0316 µM, first compound 0.00999 µM): 95.1% | viability, T/C [1]: 57% | viability, T/C (second compound 0.0316 µM, first compound 0.0999 µM): 58.4% | viability, T/C [3]: 40.1% | viability, T/C (second compound 0.1 µM, first compound 0.000999 µM): 101% | viability, T/C (second compound 0.1 µM, first compound 0.00316 µM): 82.3% | viability, T/C (second compound 0.1 µM, first compound 0.00999 µM): 68.2% | viability, T/C [7]: 46.2% | viability, T/C (second compound 0.1 µM, first compound 0.0999 µM): 49.7% | viability, T/C [9]: 35.9% | viability, T/C (second compound 0.316 µM, first compound 0.000999 µM): 95.7% | viability, T/C (second compound 0.316 µM, first compound 0.00316 µM): 77.7% | viability, T/C (second compound 0.316 µM, first compound 0.00999 µM): 81.3% | viability, T/C [13]: 52.2% | viability, T/C (second compound 0.316 µM, first compound 0.0999 µM): 61.5% | viability, T/C [15]: 38.4% | viability, T/C (second compound 1 µM, first compound 0.000999 µM): 90.6% | viability, T/C (second compound 1 µM, first compound 0.00316 µM): 79% | viability, T/C (second compound 1 µM, first compound 0.00999 µM): 64.9% | viability, T/C [19]: 65.4% | viability, T/C (second compound 1 µM, first compound 0.0999 µM): 57% | viability, T/C [21]: 28.8% | viability, T/C (second compound 3.16 µM, first compound 0.000999 µM): 86.2% | viability, T/C (second compound 3.16 µM, first compound 0.00316 µM): 79.4% | viability, T/C (second compound 3.16 µM, first compound 0.00999 µM): 70.6% | viability, T/C [25]: 58.1% | viability, T/C (second compound 3.16 µM, first compound 0.0999 µM): 42.1% | viability, T/C [27]: 29.6% | viability, T/C (second compound 10 µM, first compound 0.000999 µM): 47.8% | viability, T/C (second compound 10 µM, first compound 0.00316 µM): 40.2% | viability, T/C (second compound 10 µM, first compound 0.00999 µM): 35.8% | viability, T/C [31]: 35.1% | viability, T/C (second compound 10 µM, first compound 0.0999 µM): 26.9% | viability, T/C [33]: 19.2%
